Test system: MatTek's MelanoDerm skin epidermal equivalent tissues (MEL-300-B; NHEK and NHM)
Assay: Skin Epidermal Equivalents Model as a Skin Lightening Test (ΔL)
Assay type: cell-based, human
Source text: Skin Epidermal Equivalents Model as a Skin Lightening Test (ΔL)
Skin epidermal equivalent tissues are available commercially from MatTek's MelanoDerm™ System and were used for the following tests. MatTek's MelanoDerm™ System consists of normal, human-derived epidermal keratinocytes (NHEK) and melanocytes (NHM) which have been cultured to form a multilayered, highly differentiated model of the human epidermis. Specifically, MEL-300-B tissues, each 9 mm in diameter were used in the following tests.
The test materials prepared in an appropriate vehicle and tested concentrations were applied topically to the skin model daily and the experiment lasted for 8 days. Measurement was taken on day 9.
The macroscopic and microscopic visual tissue darkening end points were measured by taking pictures with a digital camera. The Degree of Lightness for each tissue (L-Value) was measured using a spectrophotometer (Konica Minolta CM-2600d). The ΔL (degree of lightness as compared to control) for each test sample is calculated as per following formula: ΔL=L-value of treated sample−L-value of control sample.

`CC(C)=CCCC(C)=CCCC(C)=CCOc1ccc(CCC(=O)O)cc1` [M-1, 3-(4-Farnesyloxyphenyl)propionic acid] was tested. Which “Skin Lightening (ΔL Value)” value (concentration 0.5%, topical daily for 8 days, measured day 9) did it give?
Its value is 1.2.

What about the “Skin lightening efficacy compared with first extract E1” value (same concentration (0.5%) as E1) of the same molecule?
The value was “equal to first extract E1”.
